{"source": "paper PMC3530638", "about": "(Biochimica et biophysica acta, 2012)", "origin": "cited, not measured here", "tested_on": "B. anthracis", "conditions": "cited from earlier work", "data": [{"molecule": "CCCC1c2ccccc2C=NN1C(=O)/C=C/c1cc(Cc2cnc(N)nc2N)cc(OC)c1OC", "note": "(stereo not shown) [n-propyl, (E)-3-[5-(2,4-diaminopyrimidin-5-ylmethyl)-2,3-dimethoxyphenyl]-1-(1-propyl-1h-phthalazin-2-yl)propenone]", "values": [{"measurement": "MIC", "value": "1 to 3", "unit": "µg/mL"}]}]}
